According to US7119111B2, “2-oxo-1,3,4-trihydroquinazolinyl derivatives and methods of use” (Amgen, Inc., priority 2002, dated 2006):
Structures can show the parent of a compound that is named as a salt.

Columns and labels:
[1] = Cell Proliferation Assay (BrdU incorporation); format: cell-based; conditions: Homo sapiens; 48 h incubation, BrdU labeling; cell line not specified; read-out: inhibited cell proliferation IC50
Protocol: Cell proliferation was measured using a calorimetric immunoassay (B/M Roche #164 7229), based on the measurement of pyrimidine analog BrdU incorporation during DNA synthesis in proliferating cells. Cells, e.g., human PC-3 prostate carconima cells, huFSF normal human foreskin fibroblast cells, HCT 116 human colon carcinoma cells or HT 29 human colon carcinoma cells, were cultured in a 96-well plate for 24 h, until a cell count of 3×10^3 to 6×10^3 cells per well in duplicate wells were achieved, in a well volume of 200 μl. The media was changed and 1 μl of 200× control inhibitors or compounds was added to each well. Cells are incubated for 48 h at 37° C. The cells were labeled with BrdU for 4 h at 37° C. The labeling medium was removed and in one step, the cells were fixed and the DNA was denatured (30 min at RT). Anti-BrdU-POD antibody was added to bind to the BrdU incorporated in newly synthesized cellular DNA (60–90 min at RT). The cells were washed 3×with washing buffer, substrate (100 μl) was added and the cells were incubated for 10 min at RT. The substrate reaction was stopped by adding 25 μl of 1M H2SO4. The amount of BrdU incorporated was quantified by measuring the absorbance at 450 nm using ELISA reader. IC50's were calculated using GraFit (Sigma).

Compound	melting point	IC50 [1]
CN(C)CCN(C)c1ccc2c(c1)CN(c1nc(-c3ccncc3)cs1)C(=O)N2 [Example 37, 6-{[2-(Dimethylamino)ethyl](methyl)amino}-3-(4-(4-pyridyl)(1,3-thiazol-2-yl))-1,3,4-trihydroquinazolin-2-one]	254 to 257 °C	
O=C1Nc2cc(F)ccc2CN1c1csc(-c2ccncc2)n1 [Example 9, 7-Fluoro-3-(2-(4-pyridyl)(1,3-thiazol-4-yl))-1,3,4-trihydroquinazolin-2-one]	285 to 286 °C	
Cc1ccc(Oc2ccc3c(c2)CN(c2nc(-c4ccncc4)cs2)C(=O)N3)c(C)c1 [Example 40, 6-(2,4-Dimethylphenoxy)-3-(4-(4-pyridyl)(1,3-thiazol-2-yl))-1,3,4-trihydroquinazolin-2-one]	254 to 258 °C	
O=C1Nc2cccc(OCCN3CCOCC3)c2CN1c1nc(-c2ccncc2)ns1 (as salt: salt) [Example 51, 5-(2-Morpholin-4-ylethoxy)-3-(3-(4-pyridyl)(1,2,4-thiadiazol-5-yl))-1,3,4-trihydroquinazolin-2-one]	259 to 260 °C	
O=C1Nc2cccc(N3CCOCC3)c2CN1c1nc(-c2ccncc2)ns1 [Example 53, 5-Morpholin-4-yl-3-(3-(4-pyridyl)(1,2,4-thiadiazol-5-yl))-1,3,4-trihydroquinazolin-2-one]	> 300 °C	
O=C1Nc2ccccc2CN1c1ccc(-c2ccncc2)s1 [Example 47, 3-(5-(4-Pyridyl)-2-thienyl)-1,3,4-trihydroquinazolin-2-one]	301 to 305 °C	
COc1ccc(-c2csc(N3Cc4ccccc4NC3=O)n2)c(OC)c1 [Example 41, 3-[4-(2,4-Dimethoxyphenyl)-1,3-thiazol-2-yl]-1,3,4-trihydroquinazolin-2-one]	283 to 288 °C	
CN1CCC[C@H]1COc1ccc2c(c1)CN(c1nc(-c3ccncc3)ns1)C(=O)N2 [Example 54, 6-[((2S)-1-Methylpyrrolidin-2-yl)methoxy]-3-(3-(4-pyridyl)-(1,2,4-thiadiazol-5-yl))-1,3,4-trihydroquinazolin-2-one]	> 275 °C	
O=C1Nc2ccccc2CN1c1nc(-c2ccc(F)c(F)c2)cs1 [Example 39, 3-[4-(3,4-Difluorophenyl)-1,3-thiazol-2-yl]-1,3,4-trihydroquinazolin-2-one]	289 to 293 °C	
O=C1Nc2cccc(F)c2CN1c1csc(-c2ccncc2)n1 [Example 13, 5-Fluoro-3-(2-(4-pyridyl)(1,3-thiazol-4-yl))-1,3,4-trihydroquinazolin-2-one]	247 to 249 °C	
COC(=O)c1cccc2c1CN(c1csc(-c3ccncc3)n1)C(=O)N2 [Example 2, Methyl 2-oxo-3-(2-(4-pyridyl)(1,3-thiazol-4-yl))-1,3,4-trihydroquinazoline-5-carboxylate]		< 5 µM
O=C1Nc2ccccc2CN1c1nc(-c2ccc(Cl)c(Cl)c2)cs1 [Example 44, 3-[4-(3,4-Dichlorophenyl)-1,3-thiazol-2-yl]-1,3,4-trihydroquinazolin-2-one]	295 to 299 °C	
O=C1Nc2cccc(CN3CCCCC3)c2CN1c1csc(-c2ccncc2)n1 (as salt: HCl) [Example 15, 5-(Piperidylmethyl)-3-(2-(4-pyridyl)(1,3-thiazol-4-yl))-1,3,4-trihydroquinazolin-2-one]	278 to 280 °C	
O=C1Nc2ccccc2CN1c1nc(-c2ccncc2)cs1 [Example 16, 3-(4-(4-Pyridyl)-1,3-thiazol-2-yl)-1,3,4-trihydroquinazolin-2-one]	> 267 °C	
O=C1Nc2ccccc2CN1c1nc(-c2cccnc2)cs1 [Example 18, 3-(4-(3-Pyridyl)-1,3-thiazol-2-yl)-1,3,4-trihydroquinazolin-2-one]	269 to 272 °C	
O=C1Nc2cccc(Br)c2CN1c1csc(-c2ccncc2)n1 [Example 6, 5-Bromo-3-(2-(4-pyridyl)(1,3-thiazol-4-yl))-1,3,4-trihydroquinazolin-2-one]	283 to 284 °C	
O=C1Nc2ccc(N3CCCCC3)cc2CN1c1nc(-c2ccncc2)cs1 [Example 36, 6-Piperidyl-3-(4-(4-pyridyl)(1,3-thiazol-2-yl))-1,3,4-trihydroquinazolin-2-one]	> 272 °C	
O=C1Nc2ccccc2CN1c1nc(-c2ccccn2)cs1 [Example 17, 3-(4-(2-Pyridyl)-1,3-thiazol-2-yl)-1,3,4-trihydroquinazolin-2-one]	> 275 °C	
O=C1Nc2cc(C(F)(F)F)ccc2CN1c1nc(-c2ccncc2)ns1 [Example 52, 3-(3-(4-Pyridyl)(1,2,4-thiadiazol-5-yl))-7-(trifluoromethyl)-1,3,4-trihydroquinazolin-2-one]	> 300 °C	

Compound	melting point	IC50 [1]
O=C1Nc2cccc(Cl)c2CN1c1nc(-c2ccncc2)cs1 [Example 43, 5-Chloro-3-(4-(4-pyridyl)(1,3-thiazol-2-yl))-1,3,4-trihydroquinazolin-2-one]	> 300 °C	
O=C1Nc2cccc(CN3CCCCCC3)c2CN1c1csc(-c2ccncc2)n1 [Example 29, 5-(Azaperhydroepinylmethyl)-3-(2-(4-pyridyl)(1,3-thiazol-4-yl))-1,3,4-trihydroquinazolin-2-one]	202 to 204 °C	
O=C1Nc2cc(CN3CCOCC3)ccc2CN1c1csc(-c2ccncc2)n1 [Example 27, 7-(Morpholin-4-ylmethyl)-3-(2-(4-pyridyl)(1,3-thiazol-4-yl))-1,3,4-trihydroquinazolin-2-one]	249 to 250 °C	
CN1CCN(c2ccc3c(c2)CN(c2nc(-c4ccncc4)cs2)C(=O)N3)CC1 [Example 38, 6-(4-Methylpiperazinyl)-3-(4-(4-pyridyl)(1,3-thiazol-2-yl))-1,3,4-trihydroquinazolin-2-one]	301 to 304 °C	
O=C1Nc2cccc(F)c2CN1c1nc(-c2ccncc2)cs1 [Example 45, 5-Fluoro-3-(4-(4-pyridyl)(1,3-thiazol-2-yl))-1,3,4-trihydroquinazolin-2-one]	> 300 °C	
O=C1Nc2cc(-c3ccccc3)ccc2CN1c1csc(-c2ccncc2)n1 [Example 12, 7-Phenyl-3-(2-(4-pyridyl)(1,3-thiazol-4-yl))-1,3,4-trihydroquinazolin-2-one]	248 to 250 °C	
O=C1Nc2cc(F)c(N3CCCCC3)cc2CN1c1csc(-c2ccncc2)n1 [Example 56, 7-Fluoro-6-piperidyl-3-(2-(4-pyridyl)(1,3-thiazol-4-yl))-1,3,4-trihydroquinazolin-2-one]	312 to 314 °C	
COc1cccc(-c2cccc3c2CN(c2csc(-c4ccncc4)n2)C(=O)N3)c1 [Example 57, 5-(3-Methoxyphenyl)-3-(2-(4-pyridyl)(1,3-thiazol-4-yl))-1,3,4-trihydroquinazolin-2-one]	250 to 252 °C	
COc1ccc(-c2csc(N3Cc4ccccc4NC3=O)n2)cc1 [Example 48, 3-[4-(4-Methoxyphenyl)-1,3-thiazol-2-yl]-1,3,4-trihydroquinazolin-2-one]	275 to 278 °C	
O=C1Nc2ccccc2CN1c1nc(-c2ccc(O)cc2)cs1 [Example 49, 3-[4-(4-Hydroxyphenyl)-1,3-thiazol-2-yl]-1,3,4-trihydroquinazolin-2-one]	288 to 291 °C	
O=C1Nc2ccc(F)cc2CN1c1csc(-c2ccncc2)n1 [Example 10, 6-Fluoro-3-(2-(4-pyridyl)(1,3-thiazol-4-yl))-1,3,4-trihydroquinazolin-2-one]	290 to 291 °C	
CCc1cc(-c2nc(N3Cc4ccccc4NC3=O)cs2)ccn1 [Example 35, 3-[2-(2-Ethyl-4-pyridyl)-1,3-thiazol-4-yl]-1,3,4-trihydroquinazolin-2-one]	239 to 240 °C	
COc1cccc(-c2ccc3c(c2)NC(=O)N(c2csc(-c4ccncc4)n2)C3)c1 [Example 30, 7-(3-Methoxyphenyl)-3-(2-(4-pyridyl)(1,3-thiazol-4-yl))-1,3,4-trihydroquinazolin-2-one]	256 to 258 °C	
Cc1ccc2c(c1)CN(c1csc(-c3ccncc3)n1)C(=O)N2 [Example 7, 6-Methyl-3-(2-(4-pyridyl)(1,3-thiazol-4-yl))-1,3,4-trihydroquinazolin-2-one]	259 to 261 °C	
CN1CCC[C@H]1COc1cccc2c1CN(c1nc(-c3ccncc3)ns1)C(=O)N2 [Example 55, 5-[((2S)-1-Methylpyrrolidin-2-yl)methoxy]-3-(3-(4-pyridyl)-(1,2,4-thiadiazol-5-yl))-1,3,4-trihydroquinazolin-2-one]	> 250 °C	
O=C1Nc2ccccc2CN1c1nc(-c2ccncc2)ns1 [Example 46, 3-(3-(4-Pyridyl)-1,2,4-thiadiazol-5-yl)-1,3,4-trihydroquinazolin-2-one]	> 290 °C	
O=C1Nc2cccc(Cl)c2CN1c1csc(-c2ccncc2)n1 [Example 11, 5-Chloro-3-(2-(4-pyridyl)(1,3-thiazol-4-yl))-1,3,4-trihydroquinazolin-2-one]	292 to 293 °C	
O=C1Nc2cccc(CN3CCOCC3)c2CN1c1csc(-c2ccncc2)n1 (as salt: HCl) [Example 14, 5-(Morpholin-4-ylmethyl)-3-(2-(4-pyridyl)(1,3-thiazol-4-yl))-1,3,4-trihydroquinazolin-2-one]	261 to 263 °C	
